Experimental data from PubChem BioAssay AID256 (DTP/NCI, 2004).
Values joined by “and” are separate entries in the source; they are usually repeats but may differ in a detail not shown here. Identical values can stand only once. Toxic doses and inconclusive results are not listed. Rule for the calls: active = survival T/C of 150% or more; inactive = T/C below 125% in these data.

System: CD2F1 mice, L1210 leukemia ip, survival T/C
Assay: NCI In Vivo Anticancer Drug Screen. Data for tumor model L1210 Leukemia (intraperitoneal) in CD2F1 (CDF1) mice
Conditions: endpoint: mean survival time, higher = longer survival
In short: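 Transplantable tumor in mice; compound-treated vs vehicle-treated groups. Read-out = treated/control ratio of the measured endpoint.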

[1] = dose: 100.0 mg/kg/injection, schedule: Q04DX003 (ip), vehicle: saline with Tween-80
[2] = dose: 400.0 mg/kg/injection, schedule: Q04DX003 (ip), vehicle: saline with Tween-80
[3] = dose: 25.0 mg/kg/injection, schedule: Q04DX003 (ip), vehicle: saline
[4] = dose: 50.0 mg/kg/injection, schedule: Q04DX003 (ip), vehicle: saline
[5] = dose: 100.0 mg/kg/injection, schedule: Q01DX001 (ip), vehicle: saline with Tween-80
[6] = dose: 200.0 mg/kg/injection, schedule: Q01DX001 (ip), vehicle: saline with Tween-80
[7] = dose: 400.0 mg/kg/injection, schedule: Q01DX001 (ip), vehicle: saline with Tween-80
[8] = dose: 25.0 mg/kg/injection, schedule: Q01DX009 (ip), vehicle: Klucel (hydroxypropylcellulose) (HPC)

Measured: T/C

CCCCn1c2ccccc2c2ccccc21
inactive: [1] 94 % of control | [2] 94 % of control

CCCCCC(C)N (centres undefined)
inactive: dose: 12.5 mg/kg/injection, schedule: Q01DX009 (ip), vehicle: saline sonified 101 % of control | dose: 12.5 mg/kg/injection, schedule: Q04DX003 (ip), vehicle: saline 104 % of control | dose: 25.0 mg/kg/injection, schedule: Q01DX009 (ip), vehicle: saline sonified 98 % of control | [3] 103 % of control | dose: 50.0 mg/kg/injection, schedule: Q01DX009 (ip), vehicle: saline sonified 107 % of control | [4] 97 % of control

CCCCCCCCCCCCCCCCCCCCCC(=O)CCCCCCCCCCCCCCCCCCCCC
inactive: [5] 86 % of control | [6] 93 % of control | [7] 101 % of control

O=[N+]([O-])c1ccc2c([N+](=O)[O-])cc(O)cc2c1
inactive: [5] 95 % of control | dose: 100.0 mg/kg/injection, schedule: Q01DX009 (ip), vehicle: saline with Tween-80 96 % of control | [6] 105 % of control | dose: 200.0 mg/kg/injection, schedule: Q01DX009 (ip), vehicle: saline with Tween-80 96 % of control | [7] 100 % of control | dose: 400.0 mg/kg/injection, schedule: Q01DX009 (ip), vehicle: saline with Tween-80 98 % of control

CCCC(=O)c1cc(O)ccc1O
inactive: dose: 100.0 mg/kg/injection, schedule: Q01DX001 (ip), vehicle: saline 101 % of control | dose: 200.0 mg/kg/injection, schedule: Q01DX001 (ip), vehicle: saline 96 % of control | dose: 400.0 mg/kg/injection, schedule: Q01DX001 (ip), vehicle: saline 104 % of control

CCCCCCCCCCCCCCCC(=O)Nc1c(C)cccc1C
inactive: dose: 100.0 mg/kg/injection, schedule: Q04DX002 (ip), vehicle: saline with Tween-80 100 % of control | dose: 200.0 mg/kg/injection, schedule: Q04DX002 (ip), vehicle: saline with Tween-80 91 % of control | dose: 400.0 mg/kg/injection, schedule: Q04DX002 (ip), vehicle: saline with Tween-80 95 % of control

OCCN1CCN(CCCN2c3ccccc3Sc3ccc(Cl)cc32)CC1
inactive: dose: 6.25 mg/kg/injection, schedule: Q01DX009 (ip), vehicle: Klucel (hydroxypropylcellulose) (HPC) 93 % of control | dose: 6.25 mg/kg/injection, schedule: Q04DX002 (ip), vehicle: Klucel (hydroxypropylcellulose) (HPC) 96 % of control | dose: 12.5 mg/kg/injection, schedule: Q01DX009 (ip), vehicle: Klucel (hydroxypropylcellulose) (HPC) 96 % of control | dose: 12.5 mg/kg/injection, schedule: Q04DX002 (ip), vehicle: Klucel (hydroxypropylcellulose) (HPC) 91 % of control | [8] 116 % of control | [3] 108 % of control and 110 % of control | dose: 25.0 mg/kg/injection, schedule: Q04DX009 (ip), vehicle: Klucel (hydroxypropylcellulose) (HPC) 113 % of control | [4] 110 % of control | dose: 200.0 mg/kg/injection, schedule: Q04DX003 (ip), vehicle: saline 116 % of control

O=[N+]([O-])/C=C/c1cc2ccccc2[nH]1
inactive: dose: 100.0 mg/kg/injection, schedule: Q04DX003 (ip), vehicle: acetone 94 % of control | dose: 200.0 mg/kg/injection, schedule: Q04DX003 (ip), vehicle: acetone 94 % of control | dose: 400.0 mg/kg/injection, schedule: Q04DX003 (ip), vehicle: acetone 105 % of control

CSC(=CC(=O)c1ccccc1)SC
inactive: dose: 75.0 mg/kg/injection, schedule: Q01DX001 (ip), vehicle: saline 101 % of control | dose: 150.0 mg/kg/injection, schedule: Q01DX001 (ip), vehicle: saline 106 % of control

BrC1CCCCCC12OCCO2 (centres undefined)
inactive: [1] 86 % of control | dose: 200.0 mg/kg/injection, schedule: Q04DX003 (ip), vehicle: saline with Tween-80 94 % of control | [2] 89 % of control

Nc1ncnc2c1ncn2C1OC(CO)C2[O][Sn]([c]3ccccc3)([c]3ccccc3)[O]C21 (centres undefined)
inactive: dose: 1.56 mg/kg/injection, schedule: Q01DX005 (ip), vehicle: other 107 % of control | dose: 3.13 mg/kg/injection, schedule: Q01DX005 (ip), vehicle: other 105 % of control | dose: 6.25 mg/kg/injection, schedule: Q01DX005 (ip), vehicle: other 100 % of control | dose: 12.5 mg/kg/injection, schedule: Q01DX005 (ip), vehicle: other 90 % of control and 107 % of control

c1ccc(N/N=C2/c3ccccc3CC23OC3c2ccccc2)cc1 (centres undefined)
inactive: [8] 97 % of control | dose: 50.0 mg/kg/injection, schedule: Q01DX009 (ip), vehicle: Klucel (hydroxypropylcellulose) (HPC) 97 % of control | dose: 100.0 mg/kg/injection, schedule: Q01DX009 (ip), vehicle: Klucel (hydroxypropylcellulose) (HPC) 91 % of control | dose: 200.0 mg/kg/injection, schedule: Q01DX009 (ip), vehicle: Klucel (hydroxypropylcellulose) (HPC) 97 % of control | dose: 400.0 mg/kg/injection, schedule: Q01DX009 (ip), vehicle: Klucel (hydroxypropylcellulose) (HPC) 97 % of control
